Test results from PubChem BioAssay AID1033 (Sanford-Burnham Center for Chemical Genomics, 2008).
Activity calls are given as the source filed them. No rule for the calls is given here.

The compounds below were run against Chaperone protein DnaK (Escherichia coli (strain K12)) (UniProt P0A6Y8) (assay: E. coli DnaK SBD ligand binding – biophysical, NMR, chaperone (AID 1033)). Conditions: Purified DnaK SBD.
Chain of Chaperone protein DnaK (Escherichia coli (strain K12)) (P0A6Y8 whole entry, looked up): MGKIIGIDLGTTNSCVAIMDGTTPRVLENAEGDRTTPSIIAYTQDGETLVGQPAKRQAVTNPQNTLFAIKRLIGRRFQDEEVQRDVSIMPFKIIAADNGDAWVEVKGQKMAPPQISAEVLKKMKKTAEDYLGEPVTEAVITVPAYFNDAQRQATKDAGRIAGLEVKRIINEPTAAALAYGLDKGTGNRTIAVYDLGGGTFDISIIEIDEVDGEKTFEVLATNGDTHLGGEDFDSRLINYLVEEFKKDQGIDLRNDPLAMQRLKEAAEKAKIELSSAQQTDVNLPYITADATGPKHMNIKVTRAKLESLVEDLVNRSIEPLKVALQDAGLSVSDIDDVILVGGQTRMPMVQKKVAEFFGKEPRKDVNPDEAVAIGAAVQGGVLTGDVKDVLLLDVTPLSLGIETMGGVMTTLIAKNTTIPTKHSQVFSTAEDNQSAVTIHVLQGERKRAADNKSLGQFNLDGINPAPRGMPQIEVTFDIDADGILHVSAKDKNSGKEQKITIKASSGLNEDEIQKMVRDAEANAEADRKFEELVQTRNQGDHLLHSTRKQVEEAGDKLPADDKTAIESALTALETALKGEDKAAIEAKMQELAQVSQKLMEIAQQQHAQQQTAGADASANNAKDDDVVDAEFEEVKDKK
O=C1CCCN1C(=O)c1ccc(F)cc1 was tested, and the Kd was > 4 mM (inactive). Cc1cc(C)n(-c2nncn2N)n1 was tested, and the Kd was > 4 mM (inactive). For COc1ccc(S(=O)(=O)Nc2ccccn2)c(C)c1C, the Kd was > 4 mM (inactive). In the case of NC(=O)C1CCN(C(=O)c2ccco2)CC1, the Kd is reported as > 4 mM (inactive). For CN1C(=O)C2CC=C(Cl)CC2C1=O (configuration not stated), the Kd was > 4 mM (inactive). With NC(=O)N1CCc2ccccc21 the Kd was > 4 mM (inactive). In the case of CC(=O)Nc1ccc(S(=O)(=O)N(C)C)cc1, the Kd is reported as > 4 mM (inactive). For O=C(c1ccccc1)c1ccc(N2CCNCC2)cc1, the Kd was > 4 mM (inactive). With Cc1cc(=O)c2c(O)c(C)c(O)cc2o1 the Kd was > 4 mM (inactive). For O=C(O)CCC(=O)c1c[nH]c2ccccc12, the Kd was > 4 mM (inactive). With CC(=O)Nc1ccc(NC(=O)N2CCOCC2)cc1 the Kd was > 4 mM (inactive). For Cc1c(C(=O)O)cnn1-c1ccccc1, the Kd was > 4 mM (inactive). For NC(=O)c1ccccc1NC(=O)C1CCCO1 (configuration not stated), the Kd was > 4 mM (inactive). In the case of CC1SC(=NC(=O)c2ccco2)NC1=O (configuration not stated), the Kd is reported as > 4 mM (inactive). With [O-][n+]1onc2c1CCc1c-2nc(-c2ccccc2)n1O the Kd was > 4 mM (inactive). With NCc1cccc2c1OCCCO2 the Kd was > 4 mM (inactive). With NC1Cc2ccccc2C1 the Kd was > 4 mM (inactive). For Cc1cc(=O)n(CC(C)C)c(O)c1C#N, the Kd was > 4 mM (inactive). With Cc1cccc(NC(=O)c2ccccc2C(=O)O)c1 the Kd was > 4 mM (inactive). In the case of COC1=CC(=O)C[C@@H](C)[C@]12Oc1c(Cl)c(OC)cc(OC)c1C2=O, the Kd is reported as > 4 mM (inactive). NC(=O)NC1NC(=O)NC1=O (configuration not stated) was tested, and the Kd was > 4 mM (inactive). With Cc1ccc(NC(=O)C(=O)Nc2ccccn2)cc1 the Kd was > 4 mM (inactive). In the case of COCc1cc(=O)oc2cc(N)ccc12, the Kd is reported as > 4 mM (inactive). With Nc1cccc(-n2cnnn2)c1 the Kd was > 4 mM (inactive). CCOC(=O)c1cnc2sccn2c1=O was tested, and the Kd was > 4 mM (inactive). In the case of Fc1ccc2onc(C3CCNCC3)c2c1, the Kd is reported as > 4 mM (inactive). For C/C=C(/C)C(=O)O[C@@H]1[C@H](OC(C)=O)[C@@]2(CO)C(CC1(C)C)C1=CCC3[C@@]4(C)CC[C@H](O[C@@H]5O[C@H](C(=O)O)[C@@H](O[C@@H]6O[C@H](CO)[C@@H](O)[C@H](O)[C@H]6O)[C@H](O)[C@H]5O[C@@H]5O[C@H](CO)[C@@H](O)[C@H](O)[C@H]5O)[C@](C)(CO)C4CC[C@@]3(C)[C@]1(C)C[C@H]2O (some centres not stated), the Kd was > 4 mM (inactive). For COc1ccc2c(c1)OC/C(=C/c1ccc(OC)c(OC)c1)C2=O, the Kd was > 4 mM (inactive). With NCc1cn2ccccc2n1 the Kd was > 4 mM (inactive). In the case of COc1cc(/C=C/C(=O)O)cc(OC)c1OC, the Kd is reported as > 4 mM (inactive). For Cc1nn2c(=O)c(NC(=O)c3ccccc3)cnc2s1, the Kd was > 4 mM (inactive). With NC(=O)Cc1nc(-c2ccccc2)cs1 the Kd was > 4 mM (inactive). With O=C1NC(=S)S/C1=C/c1ccncc1 the Kd was > 4 mM (inactive). O=C(O)c1ccc(-c2ccccn2)s1 was tested, and the Kd was > 4 mM (inactive). With NC(c1ccccc1)c1ccccn1 (configuration not stated) the Kd was > 4 mM (inactive). With CC1=CC(=O)NC2C=CC=CC12 (configuration not stated) the Kd was > 4 mM (inactive). In the case of OCc1ccc(-n2ccnc2)cc1, the Kd is reported as > 4 mM (inactive). CC(=O)c1cc(C)ccc1O was tested, and the Kd was > 4 mM (inactive). COC(=O)Nc1c(C)n(C)n(-c2ccccc2)c1=O was tested, and the Kd was > 4 mM (inactive). With CC12CCCC(O)(C1)C1CC(C)(C)C1CC2 (configuration not stated) the Kd was > 4 mM (inactive). For CC(C)c1c(O)c(-c2cc3c(c(C(C)C)c2O)CCC2C(C)(C)CCC[C@]32C)cc2c1CCC1C(C)(C)CCC[C@]21C (some centres not stated), the Kd was > 4 mM (inactive). With COc1cc(O)c2c(=O)cc(-c3ccc(OC)c(-c4c(O)cc(O)c5c(=O)cc(-c6ccc(O)cc6)oc45)c3)oc2c1 the Kd was > 4 mM (inactive). O=C(O)c1cccc2c1OCCCO2 was tested, and the Kd was > 4 mM (inactive). In the case of O=C1CS/C(=N/S(=O)(=O)c2ccccc2)N1, the Kd is reported as > 4 mM (inactive). In the case of Nn1cnn2c(SCc3ccccc3)nnc12, the Kd is reported as > 4 mM (inactive). Clc1ccccc1OCc1nc(-c2ccncc2)no1 was tested, and the Kd was > 4 mM (inactive). For C[C@]12CCC3C(CC[C@]4(O)C[C@@H](O)CC[C@]34C=O)[C@@]1(O)CCC2C1=CC(=O)OC1 (some centres not stated), the Kd was > 4 mM (inactive). In the case of Cc1ccc(C)c(C(=O)n2cnnc2N)c1, the Kd is reported as > 4 mM (inactive). In the case of Cc1cc(C)n2nc(Cc3ccccc3)nc2n1, the Kd is reported as > 4 mM (inactive). With COC(=O)c1cnccc1C(F)(F)F the Kd was > 4 mM (inactive). In the case of O=C(NC(=S)NC1CCS(=O)(=O)C1)c1ccccc1 (configuration not stated), the Kd is reported as > 4 mM (inactive). In the case of CC(C)c1c(O)ccc2c1CCC1[C@@](C)(CO)CCC[C@]21C (some centres not stated), the Kd is reported as > 4 mM (inactive). In the case of COc1ccc(-c2nnc(-c3ccc(N)cc3)o2)cc1, the Kd is reported as > 4 mM (inactive). In the case of CC1O[C@@H](Oc2c(-c3ccc(O)c(O)c3)oc3cc(O)cc(O)c3c2=O)[C@H](O)[C@H](O)[C@H]1O (some centres not stated), the Kd is reported as > 4 mM (inactive). In the case of CC(=O)O[C@@H]1CC2C(C)(C)C(=O)C=C[C@]2(C)C2CC[C@@]3(C)[C@H](c4ccoc4)OC(=O)[C@H]4O[C@]43[C@@]21C (some centres not stated), the Kd is reported as > 4 mM (inactive). For OCc1cccc2nonc12, the Kd was > 4 mM (inactive). For Nc1nc(-c2ccc(O)cc2)cs1, the Kd was > 4 mM (inactive). NC(=O)c1ccsc1NC(=O)c1cccnc1 was tested, and the Kd was > 4 mM (inactive). For S=C1NC(=S)NC(c2ccc3c(c2)OCO3)N1, the Kd was > 4 mM (inactive). In the case of Cc1nc2ccccc2c2c1C(=O)N(C)C2=O, the Kd is reported as > 4 mM (inactive). With c1ccc(Cc2nnc(-c3ccccc3)o2)cc1 the Kd was > 4 mM (inactive). With S=C(c1ccc(N2CCOCC2)cc1)N1CCOCC1 the Kd was > 4 mM (inactive). With CC(=O)N1CCn2c3c(c(=O)c4cc(C)ccc42)CCC31 (configuration not stated) the Kd was > 4 mM (inactive). With NC(=O)CS(=O)(=O)c1ccc(Cl)cc1 the Kd was > 4 mM (inactive). For CCCCCC1C(=O)CCC1CC(=O)OC (configuration not stated), the Kd was > 4 mM (inactive). In the case of O=C(O)c1ccc2c(c1)OCCCO2, the Kd is reported as > 4 mM (inactive). In the case of COc1cc(-c2nnc(NC(C)=O)o2)cc(OC)c1OC, the Kd is reported as > 4 mM (inactive). O=C(O)c1ccc(-c2cccs2)cc1 was tested, and the Kd was > 4 mM (inactive). In the case of Cc1ccc(-c2nnn(CC(=O)O)n2)cc1, the Kd is reported as > 4 mM (inactive). With C[C@H]1[C@H](C)CC[C@]2(CO)CC[C@]3(C)C(=CCC4[C@@]5(C)CC[C@H](O)C(C)(C)C5CC[C@]43C)[C@H]12 (some centres not stated) the Kd was > 4 mM (inactive). With O=C(NCCCO)c1ccncc1 the Kd was > 4 mM (inactive). For CC(=O)N1N=C(N)SC1c1cccnc1 (configuration not stated), the Kd was > 4 mM (inactive). In the case of Cc1ccc(CN2CCNC(=O)C2CC(=O)O)o1 (configuration not stated), the Kd is reported as > 4 mM (inactive). In the case of O=C(O)C(O)C(O)C(O)C(O)C(=O)O (configuration not stated), the Kd is reported as > 4 mM (inactive). O=CN1CCN(C(=O)c2ccccc2F)CC1 was tested, and the Kd was > 4 mM (inactive). With O=C(NC(=O)N1CCOCC1)c1ccccc1 the Kd was > 4 mM (inactive). With NC(CC(=O)O)c1ccccc1 (configuration not stated) the Kd was > 4 mM (inactive). Cc1nc(N)sc1C(=O)Nc1nccs1 was tested, and the Kd was > 4 mM (inactive). In the case of O=C(O)/C=C/C(=O)Nc1ccccc1C(F)(F)F, the Kd is reported as > 4 mM (inactive). CC(=O)Nc1cccs1 was tested, and the Kd was > 4 mM (inactive). O=c1nc(NCc2ccco2)sc2ncccc12 was tested, and the Kd was > 4 mM (inactive). In the case of Cc1nnc(SCc2cccs2)[nH]c1=O, the Kd is reported as > 4 mM (inactive). In the case of OC[C@H]1O[C@@](CO)(O[C@@H]2O[C@H](CO)[C@@H](O)[C@H](O)[C@H]2O)[C@@H](O[C@@H]2O[C@H](CO)[C@@H](O)[C@H](O)[C@H]2O)[C@@H]1O, the Kd is reported as > 4 mM (inactive). For O=[N+]([O-])c1ccc2c(c1)N([O-])C1(CCCCC1)[N+]2=O, the Kd was > 4 mM (inactive). In the case of C=C(C)[C@H]1Cc2c(ccc3c2O[C@@H]2COc4cc(OC)c(OC)cc4[C@@H]2C3=O)O1, the Kd is reported as > 4 mM (inactive). With Cc1nc(-c2ccccc2)sc1C(N)=O the Kd was > 4 mM (inactive). For CC(=O)c1c(O)cc(O)cc1O, the Kd was > 4 mM (inactive). For Cn1nnc2c(N3CCC(C(N)=O)CC3)ncnc21, the Kd was > 4 mM (inactive). For CC(CCC(=O)O)[C@H]1CCC2C3C(C[C@H](O)[C@@]21C)[C@@]1(C)CC[C@@H](O)C[C@H]1C[C@H]3O (some centres not stated), the Kd was > 4 mM (inactive). NC(=S)N1CCC(c2ccccc2)=N1 was tested, and the Kd was > 4 mM (inactive). For Nc1nc(-c2ccncc2)cs1, the Kd was > 4 mM (inactive). In the case of CC(C)(C)P(=O)(O)c1ccccc1, the Kd is reported as > 4 mM (inactive). With CSc1nc2[nH]ncc2c(=O)[nH]1 the Kd was > 4 mM (inactive). CC12CC[C@H](CC1=O)C2(C)C was tested, and the Kd was > 4 mM (inactive). In the case of CC(C)n1nnc2cc(C(=O)O)ccc21, the Kd is reported as > 4 mM (inactive). With O=C1Nc2ccccc2C12OCCO2 the Kd was > 4 mM (inactive). In the case of O=C(O)c1cc2ccccc2o1, the Kd is reported as > 4 mM (inactive). With NC(=O)CN=Cc1c(O)[nH]c2ccccc12 the Kd was > 4 mM (inactive). For COc1ccc(C)cc1-n1c(-c2ccncc2)n[nH]c1=S, the Kd was > 4 mM (inactive). C#CCCCCCCCCCCCc1ccco1 was tested, and the Kd was > 4 mM (inactive). For CC1(O)CC2C(CC1O)C2(C)C (configuration not stated), the Kd was > 4 mM (inactive). In the case of O=C(NCc1ccco1)c1ccc(=O)[nH]c1, the Kd is reported as > 4 mM (inactive). In the case of CC(=O)CNc1cc(CNC(C)=O)c(C)cc1C, the Kd is reported as > 4 mM (inactive). c1ccc(-c2nc3ccccc3nc2-c2ccccn2)nc1 was tested, and the Kd was > 4 mM (inactive). With NC1=NC(=O)/C(=C\c2cccnc2)S1 the Kd was > 4 mM (inactive). N=c1c2c3c(sc2ncn1N)CCCC3 was tested, and the Kd was > 4 mM (inactive). With COc1ccc(C(C)=O)c(OC)c1 the Kd was > 4 mM (inactive). For CNc1nnc(Cc2csc(N)n2)s1, the Kd was > 4 mM (inactive). CC(=O)/C=C\[C@@H]1[C@@]2(C)CCCC(C)(C)C2CC[C@@]1(C)O (some centres not stated) was tested, and the Kd was > 4 mM (inactive). For CC(C)=CC(=O)Nc1ccc(S(N)(=O)=O)cc1, the Kd was > 4 mM (inactive). For O=C1c2ccccc2-c2ncnc3cccc1c23, the Kd was > 4 mM (inactive). In the case of Cc1ccccc1C(=O)Nn1cnnc1, the Kd is reported as > 4 mM (inactive). OCc1ccc(Oc2ccccc2)nc1 was tested, and the Kd was > 4 mM (inactive). In the case of Cn1cccc1C(=O)NS(=O)(=O)c1ccccc1Cl, the Kd is reported as > 4 mM (inactive). For O=C(CSc1cccc2cccnc12)N1CCCC1, the Kd was > 4 mM (inactive). With CCCCCCCCCCCCCCCCCCOCC(O)CO (configuration not stated) the Kd was > 4 mM (inactive). For O=C(O)C1CSC(c2ccc(Cl)cc2)N1 (configuration not stated), the Kd was > 4 mM (inactive).
